Source: patent EP0863156A1, “Peptides useful as somatostatin antagonists” (American Cyanamid Company, priority 1997, dated 1998)

Experiments:
[1] = target: SRIF receptors expressed in S. cerevisiae (yeast) LY364 cells; test: cell-based or functional assay
SSTR2 [2] = target: T1, SSTR2 (Rattus norvegicus, UniProt P30680); test: cAMP accumulation in forskolin-stimulated GH4C1/SSTR2 cells (SPA radioimmunoassay); format: cell-based; set-up: expressed in transfected cells; host or cells: GH4C1 rat pituitary tumor cells (GH4C1/SSTR2); conditions: cAMP level, dose response of SRIF agonist + 10 µM peptide 1, forskolin stimulated cells
Source text: A primary effect of SRIF upon mammalian cells is the reduction of cyclic adenosine 3',5'-monophosphate(cAMP) levels, via inhibition of adenylyl cyclase. This is the basis of a common assay for SRIF agonists and antagonists, whereby SRIF agonists reduce artificially stimulated cAMP levels, and SRIF antagonists reverse the effect of SRIF. The rat pituitary tumor cell line GH4C1 predominantly expresses SSTR2, and responds to SRIF and to forskolin, a stimulator of adenylate cyclase (see C.M. Eppler, et al., J. Biol. Chem., 267, 15603-15612, 1992, incorporated herein by reference). […] This increases the response to SRIF and provides a greater dynamic range for the measurement of SRIF antagonist activity.
Stimulation of cells. GH4C1/SSTR2 cells, grown in DMEM with 10% bovine serum, are released from a tissue culture dish by incubation for several minutes at 37° C with PBS containing 0.5 mM EDTA. Cells are washed in induction buffer (PBS containing 100 µM IBMX (an inhibitor of cAMP breakdown) and 2 mM CaCl2) at room temperature, and resuspended at 2 x 10^6/mL in induction buffer. Into each well of a 96-well tray are added 50 µL of a 2 X concentration of stimulants in induction buffer. […] Baseline cAMP levels are determined in samples with no added forskolin or SRIF, and each treatment is performed in triplicate.
cAMP assay. […] The 96-well tray is sealed, shaken at room temperature overnight and measured for bound radioligand in a MicroBeta liquid scintillation counter (Wallac, Gaithersburg. MD). The standard curve is determined for each experiment by performing a nonlinear regression (exponential decay) analysis of cpm measured for the cAMP standards vs. their log concentrations, and test sample values are determined by using Prism software (Graphpad Software Inc., San Diego, CA) and are shown in Table II and Figure 1.
The intrinsic activity of an SRIF antagonist is the percent reversal of the SSTR2 activation by SRIF or MK678, wherein 0% is defined by cAMP levels in samples treated with forskolin plus SRIF or MK678 and 100% is the cAMP level measured after treatment with forskolin alone. […]

SRIF receptors = target: T2, SRIF receptors (Rattus norvegicus, UniProt P30680); test: Yeast bioassay for SRIF antagonist activity (zone of growth inhibition of LY364 cells growing in response to SRIF); format: cell-based; conditions: Table III; diameter of zone of growth inhibition; 10 µL of 5 mg/mL on filter disk; S-14 10 nM
T2 construct: expressed in transfected cells; host or cells: Saccharomyces cerevisiae strain LY364
Method: Agar plates containing LY364 cells that are growing in the presence of added SRIF are the basis for a sensitive SRIF antagonist assay, whereby zones of growth inhibition result from the addition of SRIF antagonists to the surface of the agar plate (see L.A. Price, et al., Molecular and Cellular Biology, 15, 6188-6195, 1995, incorporated herein by reference).
In this assay, LY364 cells are grown overnight in 2 mL of synthetic complete(SC) medium (3.4 g/L YNB without amino acids and ammonium sulfate, 10 g/L ammonium sulfate and 1.4 g/L CSM-ura-trp) with glucose (2%) and without uracil and tryptophan. These cells are washed and cultured for 4 to 8 hours in 5 mL of SC medium with lactate (3%) and without uracil and tryptophan, and finally grown overnight in 5 mL of SC medium with galactose (2%) and without uracil and tryptophan. Molten (50° C) SC agar medium with galactose (2%) and without uracil, tryptophan and histidine is adjusted to pH 6.8 with KOH, mixed with 2 x 10^4 cells/mL and SRIF (S-14, 10 nM) and poured into square (20 x 20 cm) petri dishes. Sterile filter disks are placed on the surface of the agar, and saturated with 10 µL of water or DMSO containing 5 mg/mL test peptides. After three days, the plates display a uniform cloudy background of […] cells growing in response to the added SRIF. […] This zone is quantified by measuring its diameter (mm), which varies according to the potency of the SRIF antagonist. Those peptides or mixtures of peptides displaying the largest zones of inhibition are further characterized.
Values are compared among samples in the same experiment, as the degree of yeast growth varies somewhat from assay to assay. For the first five sample types, in which progressively less complex mixtures of peptides are found, this assay is the primary determining factor in choosing which samples form the basis of subsequent syntheses.
Plates are read after 3 days. Samples shown in Table I in bold type are chosen for further synthesis. In Table I, all amino acids are D-amino acids and dashes represent undefined amino acid residues.

SSTR2 [3] = target: T1, SSTR2; test: cAMP accumulation in forskolin-stimulated GH4C1/SSTR2 cells (SPA radioimmunoassay); format: cell-based; set-up: expressed in transfected cells; host or cells: GH4C1 rat pituitary tumor cells; conditions: test peptide 2 µM; percent reversal of SSTR2 activation by SRIF or MK678; 0% = forskolin plus agonist, 100% = forskolin alone
Method: This is the basis of a common assay for SRIF agonists and antagonists, whereby SRIF agonists reduce artificially stimulated cAMP levels, and SRIF antagonists reverse the effect of SRIF. […] This increases the response to SRIF and provides a greater dynamic range for the measurement of SRIF antagonist activity.
Stimulation of cells. GH4C1/SSTR2 cells, grown in DMEM with 10% bovine serum, are released from a tissue culture dish by incubation for several minutes at 37° C with PBS containing 0.5 mM EDTA. Cells are washed in induction buffer (PBS containing 100 µM IBMX (an inhibitor of cAMP breakdown) and 2 mM CaCl2) at room temperature, and resuspended at 2 x 10^6/mL in induction buffer. Into each well of a 96-well tray are added 50 µL of a 2 X concentration of stimulants in induction buffer. […] To initiate stimulation of the cells, 50 µL (100,000) cells are added to each well, mixed by shaking 10 seconds on a plate shaker and placed at 37° C for 15 minutes. Stimulation is arrested and cells are lysed by adding 15 µL 0.33 N HCI to each well and incubating the plate for 30 minutes at 37° C. Samples are neutralized by addition of 15 µL 0.25 N NaOH/50 mM Hepes pH 7.4. Baseline cAMP levels are determined in samples with no added forskolin or SRIF, and each treatment is performed in triplicate.
cAMP assay. To measure accumulated cAMP in the samples, a radioimmunoassay is employed. The scintillation proximity assay (SPA, Amersham, Arlington Heights, IL) allows the rapid measurement of ^125I cAMP bound to a specific antibody without separating bound radioligand from free radioligand. Each of the following reagents (15 µL) are added per well in a 96-well tray: supernatants from the cell stimulation; ^125I cAMP; SPA beads conjugated to monkey anti-rabbit IgG antibodies; and rabbit anti-cAMP antibodies. For the standard curve, known amounts of cAMP (0.2 - 12.8 pmol) are added in place of cell supernatants. The 96-well tray is sealed, shaken at room temperature overnight and measured for bound radioligand in a MicroBeta liquid scintillation counter (Wallac, Gaithersburg. MD).
The intrinsic activity of an SRIF antagonist is the percent reversal of the SSTR2 activation by SRIF or MK678, wherein 0% is defined by cAMP levels in samples treated with forskolin plus SRIF or MK678 and 100% is the cAMP level measured after treatment with forskolin alone. Therefore, increased intrinsic activity of a test compound indicates increased antagonist activity of said test compound.
An inverse agonist is a compound that is not only a pure antagonist (i.e. lacking agonist activity), but also blocks the constitutive activity of an unoccupied receptor. One indication of inverse agonist activity is the ability of a SRIF antagonist to increase cAMP levels in the absence of added SRIF.

T2 sequence (P30680 whole entry): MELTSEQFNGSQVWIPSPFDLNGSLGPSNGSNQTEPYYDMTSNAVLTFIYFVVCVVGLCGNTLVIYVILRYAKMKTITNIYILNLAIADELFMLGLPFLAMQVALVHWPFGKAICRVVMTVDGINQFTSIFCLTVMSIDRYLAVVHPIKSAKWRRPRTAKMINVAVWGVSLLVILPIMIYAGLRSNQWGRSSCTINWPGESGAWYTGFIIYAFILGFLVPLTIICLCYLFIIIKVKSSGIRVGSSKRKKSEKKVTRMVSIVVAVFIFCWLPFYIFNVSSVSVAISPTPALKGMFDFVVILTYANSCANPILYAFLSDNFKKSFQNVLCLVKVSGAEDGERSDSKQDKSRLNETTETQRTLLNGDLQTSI
T1 sequence (P30680 whole entry): as above

Row | Compound | Inhibition Zone (mm), yeast bioassay for SRIF antagonist activity (LY364 cells growing on 10 nM S-14; 10 µL of 5 mg/mL peptide on a filter disk) [1] | Yeast Assay (mm) (SRIF receptors) | cAMP Assay Intrinsic activity (SSTR2 [3]) | further results
1 | Ac-His-Phe-Ile-Arg-Trp-Gly-NH2 (D-amino acids) (peptide) | 13 mm | – | – | –
2 | CC(C)[C@@H]1NC(=O)[C@H](CCCCN)NC(=O)[C@@H](Cc2c[nH]c3ccccc23)NC(=O)[C@H](Cc2ccc(O)cc2)NC(=O)[C@H](C)N(C)C(=O)[C@H](Cc2ccccc2)NC1=O [MK678] | – | – | – | Maximum (SSTR2 [2]): 8.705; Minimum (SSTR2 [2]): 2.775
3 | Ac-His-Phe-Ile-Arg-Trp-Ile-NH2 (all D), Seq Id No. 21 (peptide) | 16 mm | – | – | –
4 | Peptide 1, Ac-D-His-D-Phe-D-Ile-D-Arg-D-Trp-D-Phe-NH2 | 18 mm | – | – | –
5 | f-h-i-r-w-f [Peptide 24] | – | none | 65.2% | –
6 | f-r-i-r-w-f [Peptide 25] | – | none | 10.8% | –
7 | h-f-i-r-w [Peptide 12] | – | 16 mm | 29.1% | –
8 | h-f-i-r-w-F [Peptide 18] | – | 19 mm | 46.7% | –
9 | Ac-His-Phe-Ile-Arg-Trp-Trp-NH2 (all D), Seq Id No. 25 (peptide) | 16 mm | – | – | –
10 | Ac-His-Phe-Ile-Arg-Trp-Thr-NH2 (all D), Seq Id No. 19 (peptide) | 14 mm | – | – | –
11 | h-f-i-a-w-f [Peptide 5] | – | 10 mm | 44.1% | –
12 | h-w-i-r-w-f [Peptide 21] | – | 18 mm | 54.7% | –
13 | h-f-i-r-W-f [Peptide 17] | – | 19 mm | 50.2% | –
14 | Ac-His-Phe-Ile-Arg-Trp-Gln-NH2 (all D), Seq Id No. 26 (peptide) | 16 mm | – | – | –
15 | Ac-His-Phe-Ile-Arg-Trp-Tyr-NH2 (all D), Seq Id No. 20 (peptide) | 16 mm | – | – | –
16 | a-f-i-r-w-f [Peptide 2] | – | none | 13.0% | –
17 | h-f-i-R-w-f [Peptide 16] | – | 17 mm | 43.6% | –
18 | h-f-i-r-a-f [Peptide 6] | – | 9 mm | 13.4% | –
19 | h-f-i-w-f [Peptide 10] | – | 14 mm | 25.3% | –
20 | h-F-i-r-w-f [Peptide 14] | – | 16 mm | 29.6% | –
21 | Ac-His-Phe-Ile-Arg-Trp-Ala-NH2 (all D), Seq Id No. 22 (peptide) | 15 mm | – | – | –
22 | h-f-a-r-w-f [Peptide 4] | – | 16 mm | 41.8% | –
23 | h-i-r-w-f [Peptide 8] | – | none | 2.76% | –
24 | f-i-r-w-f [Peptide 7] | – | none | -7.2% | –
25 | w-y-i-r-w-f [Peptide 23] | – | none | 5.64% | –
26 | Ac-His-Phe-Ile-Arg-Trp-Met-NH2 (all D), Seq Id No. 24 (peptide) | 18 mm | – | – | –
27 | Ac-His-Phe-Ile-Arg-Trp-Leu-NH2 (all D), Seq Id No. 18 (peptide) | 15 mm | – | – | –
28 | Ac-His-Phe-Ile-Arg-Trp-Asn-NH2 (all D), Seq Id No. 23 (peptide) | 15 mm | – | – | –
29 | k-y-i-r-w-f [Peptide 19] | – | 9 mm | 33.3% | –
